Calls of active or inactive are those of the source. No cut-off for these calls is given here.
Columns and labels:
PC-3 = test: Cytotoxicity against human PC3 cells at 25 uM after 48 hrs by WST8 assay; type: functional, cell-based
HL-60 = test: Cytotoxicity against human HL60 cells at 25 uM after 48 hrs by WST8 assay; type: functional, cell-based
PANC-1 = test: Cytotoxicity against human PANC1 cells at 25 uM after 48 hrs by WST8 assay; type: functional, cell-based
A549 = test: Cytotoxicity against human A549 cells at 25 uM after 48 hrs by WST8 assay; type: functional, cell-based
MRC5 = test: Cytotoxicity against human MRC5 cells at 25 uM after 48 hrs by WST8 assay; type: cell-based; details: mrc5, 48 h
[1] = biological target: DNA topoisomerase 2-alpha (Homo sapiens, UniProt P11388); test: Inhibition of human DNA topoisomerase 2-mediated relaxation of supercoiled DNA by gel electrophoresis
DNA topoisomerase 1 = biological target: T1, DNA topoisomerase 1 (Homo sapiens, UniProt P11387); test: Inhibition of human DNA topoisomerase 1-mediated relaxation of supercoiled DNA by gel electrophoresis
T1 sequence (P11387 whole entry): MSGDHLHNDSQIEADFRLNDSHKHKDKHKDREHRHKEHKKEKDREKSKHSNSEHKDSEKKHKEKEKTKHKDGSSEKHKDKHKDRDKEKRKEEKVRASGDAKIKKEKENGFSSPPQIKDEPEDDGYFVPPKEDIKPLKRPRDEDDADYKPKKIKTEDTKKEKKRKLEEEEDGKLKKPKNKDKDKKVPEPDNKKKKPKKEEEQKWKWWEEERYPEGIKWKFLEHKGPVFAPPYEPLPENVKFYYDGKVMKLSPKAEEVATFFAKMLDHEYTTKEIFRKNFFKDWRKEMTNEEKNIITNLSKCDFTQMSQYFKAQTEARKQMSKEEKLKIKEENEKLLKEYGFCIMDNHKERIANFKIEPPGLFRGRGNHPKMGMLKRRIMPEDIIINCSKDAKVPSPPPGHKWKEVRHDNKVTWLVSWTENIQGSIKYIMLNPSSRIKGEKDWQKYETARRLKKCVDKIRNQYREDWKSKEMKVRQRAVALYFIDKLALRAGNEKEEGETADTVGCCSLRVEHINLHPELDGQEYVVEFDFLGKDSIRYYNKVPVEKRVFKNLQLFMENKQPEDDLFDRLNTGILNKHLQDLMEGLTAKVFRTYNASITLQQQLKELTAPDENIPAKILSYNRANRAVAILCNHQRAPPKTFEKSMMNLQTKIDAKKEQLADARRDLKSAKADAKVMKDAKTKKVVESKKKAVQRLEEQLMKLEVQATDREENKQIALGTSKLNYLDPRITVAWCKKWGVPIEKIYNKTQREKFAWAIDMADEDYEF

DNA topoisomerase 2-alpha, sequence (P11388 whole entry): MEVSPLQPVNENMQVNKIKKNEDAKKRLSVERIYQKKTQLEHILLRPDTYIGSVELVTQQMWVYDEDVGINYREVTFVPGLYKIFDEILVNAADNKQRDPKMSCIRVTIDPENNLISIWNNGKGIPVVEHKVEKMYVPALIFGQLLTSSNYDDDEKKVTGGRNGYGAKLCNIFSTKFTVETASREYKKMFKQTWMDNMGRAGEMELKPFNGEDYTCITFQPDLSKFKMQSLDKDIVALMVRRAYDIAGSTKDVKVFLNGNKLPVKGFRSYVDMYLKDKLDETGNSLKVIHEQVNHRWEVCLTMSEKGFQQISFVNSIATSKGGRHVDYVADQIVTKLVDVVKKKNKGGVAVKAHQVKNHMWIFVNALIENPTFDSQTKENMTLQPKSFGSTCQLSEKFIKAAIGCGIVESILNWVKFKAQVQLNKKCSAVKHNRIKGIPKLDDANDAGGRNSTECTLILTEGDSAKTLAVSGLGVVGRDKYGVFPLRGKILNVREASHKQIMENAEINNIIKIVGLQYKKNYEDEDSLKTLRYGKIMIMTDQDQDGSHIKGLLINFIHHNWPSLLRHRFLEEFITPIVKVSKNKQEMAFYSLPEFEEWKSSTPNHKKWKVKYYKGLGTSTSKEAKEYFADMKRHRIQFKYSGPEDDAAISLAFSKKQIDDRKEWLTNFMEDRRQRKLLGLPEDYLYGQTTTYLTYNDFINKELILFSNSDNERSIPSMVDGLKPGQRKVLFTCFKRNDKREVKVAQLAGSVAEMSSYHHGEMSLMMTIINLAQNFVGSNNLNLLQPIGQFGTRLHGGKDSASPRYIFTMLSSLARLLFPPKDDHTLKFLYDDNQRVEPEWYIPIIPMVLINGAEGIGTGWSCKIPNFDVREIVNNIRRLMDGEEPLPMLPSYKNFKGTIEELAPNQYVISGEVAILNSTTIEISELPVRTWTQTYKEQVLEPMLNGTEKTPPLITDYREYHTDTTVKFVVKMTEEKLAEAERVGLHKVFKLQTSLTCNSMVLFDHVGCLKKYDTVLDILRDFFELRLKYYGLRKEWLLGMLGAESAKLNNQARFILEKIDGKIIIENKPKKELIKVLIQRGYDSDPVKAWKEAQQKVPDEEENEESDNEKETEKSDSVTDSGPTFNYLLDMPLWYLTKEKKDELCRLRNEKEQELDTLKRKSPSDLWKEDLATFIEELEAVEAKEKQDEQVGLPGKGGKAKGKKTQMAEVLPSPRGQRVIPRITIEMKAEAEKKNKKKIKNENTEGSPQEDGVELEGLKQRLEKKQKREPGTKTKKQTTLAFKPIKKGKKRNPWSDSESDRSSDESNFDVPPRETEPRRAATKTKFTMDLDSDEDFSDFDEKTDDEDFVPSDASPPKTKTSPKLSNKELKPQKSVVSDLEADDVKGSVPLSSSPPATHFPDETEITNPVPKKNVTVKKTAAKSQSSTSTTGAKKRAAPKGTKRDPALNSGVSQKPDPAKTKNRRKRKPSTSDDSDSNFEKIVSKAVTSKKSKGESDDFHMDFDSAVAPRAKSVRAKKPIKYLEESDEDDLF

Compound | growth inhibition (GI) (PC-3) | growth inhibition (GI) (HL-60) | growth inhibition (GI) (PANC-1) | growth inhibition (GI) (A549) | growth inhibition (GI) (MRC5) | IC50 [1] [µM] | IC50 (DNA topoisomerase 1) [µM]
CC1(C)C[C@H]2C3=CC[C@@H]4[C@@]5(C)CC[C@H](O[C@@H]6O[C@H](C(=O)O)[C@@H](O)[C@H](O[C@@H]7O[C@@H](CO)[C@H](O)[C@H]7O)[C@H]6O[C@@H]6O[C@H](CO)[C@@H](O)[C@H](O)[C@H]6O)[C@](C)(CO)[C@@H]5CC[C@@]4(C)[C@]3(C)[C@@H](O)[C@@H](O)[C@@]2(CO)[C@@H](O)[C@@H]1O [AESCULIOSIDE IB] | inactive | inactive | inactive | inactive | Not Active | – | –
C/C=C(\C)C(=O)O[C@H]1[C@H](OC(C)=O)[C@]2(CO)[C@H](O)C[C@]3(C)C(=CC[C@@H]4[C@@]5(C)CC[C@H](O[C@@H]6O[C@H](C(=O)O)[C@@H](O)[C@H](O[C@@H]7O[C@@H](CO)[C@H](O)[C@H]7O)[C@H]6O[C@@H]6O[C@H](CO)[C@@H](O)[C@H](O)[C@H]6O)[C@](C)(CO)[C@@H]5CC[C@]43C)[C@@H]2CC1(C)C [AESCULIOSIDE IIH] | inactive | inactive | inactive | inactive | Not Active | – | –
C[C@@H]1O[C@H](O[C@H]2CC[C@]3(C)[C@H]4CC=C5[C@@H]6CC(C)(C)CC[C@]6(C(=O)O[C@@H]6O[C@H](CO)[C@@H](O)[C@H](O)[C@H]6O)CC[C@@]5(C(=O)O)[C@]4(C)CC[C@H]3C2(C)C)[C@@H](O)[C@H](O)[C@H]1O | inactive | inactive | inactive | inactive | Not Active | – | –
CC1(C)C[C@H]2C3=CC[C@@H]4[C@@]5(C)CC[C@H](O[C@@H]6O[C@H](C(=O)O)[C@@H](O)[C@H](O[C@@H]7O[C@@H](CO)[C@H](O)[C@H]7O)[C@H]6O[C@@H]6O[C@H](CO)[C@H](O)[C@H](O)[C@H]6O)C(C)(C)[C@@H]5CC[C@@]4(C)[C@]3(C)C[C@@H](O)[C@@]2(CO)[C@@H](O)[C@@H]1O [AESCULIOSIDE IC] | inactive | inactive | inactive | inactive | Not Active | – | –
CC1(C)C[C@H]2C3=CC[C@@H]4[C@@]5(C)CC[C@H](O)C(C)(C)[C@@H]5CC[C@@]4(C)[C@]3(C)C[C@@H](O)[C@@]2(CO)[C@@H](O)[C@@H]1O [BARRINGTOGENOL C] | inactive | inactive | inactive | inactive | Not Active | – | –
C[C@@H]1[C@@H](O)[C@H](O)[C@@H](O[C@H]2CC(C)(C)C[C@H]3C4=CC[C@@H]5[C@@]6(C)CC[C@H](O[C@@H]7O[C@H](CO)[C@@H](O)[C@H](O)[C@H]7O[C@@H]7O[C@H](CO)[C@@H](O)[C@H](O)[C@H]7O[C@@H]7O[C@H](CO)[C@H](O)[C@H](O)[C@H]7O)C(C)(C)[C@@H]6CC[C@@]5(C)[C@]4(C)C[C@@H](O)[C@@]23CO)O[C@H]1CO [ERYNGIOSIDE B] | inactive | inactive | inactive | inactive | Not Active | – | –
CC1(C)C[C@H]2C3=CC[C@@H]4[C@@]5(C)CC[C@H](O[C@@H]6O[C@H](C(=O)O)[C@@H](O)[C@H](O[C@@H]7O[C@@H](CO)[C@H](O)[C@H]7O)[C@H]6O[C@@H]6O[C@H](CO)[C@@H](O)[C@H](O)[C@H]6O)[C@](C)(CO)[C@@H]5CC[C@@]4(C)[C@]3(C)C[C@@H](O)[C@@]2(CO)[C@@H](O)[C@@H]1O [AESCULIOSIDE ID] | inactive | inactive | inactive | inactive | Not Active | – | –
CC(C)=CC/C=C(/C)[C@H]1CC[C@]2(C)[C@@H]1[C@H](O)C[C@@H]1[C@@]3(C)CC[C@H](O)C(C)(C)[C@@H]3[C@@H](O)C[C@]12C | inactive | inactive | inactive | inactive | – | > 250 | > 250
C[C@H]1[C@H](C)CC[C@]2(C(=O)O)CC[C@]3(C(=O)O)C(=CC[C@@H]4[C@@]5(C)CC[C@H](O[C@@H]6O[C@H](CO)[C@@H](O)[C@H](O)[C@H]6O)C(C)(C)[C@@H]5CC[C@]43C)[C@H]12 | inactive | inactive | inactive | inactive | – | > 250 | > 250
CC(C)=CCC[C@@](C)(O)[C@H]1CC[C@]2(C)[C@@H]1[C@H](O)C[C@@H]1[C@@]3(C)CC[C@H](O)C(C)(C)[C@@H]3[C@@H](O[C@@H]3O[C@H](CO)[C@@H](O)[C@H](O)[C@H]3O[C@H]3O[C@@H](C)[C@H](O)[C@@H](O)[C@H]3O)C[C@]12C | inactive | inactive | inactive | inactive | – | > 250 | > 250
CC(C)=CCC[C@](C)(O)[C@H]1CC[C@]2(C)[C@@H]1[C@H](O)C[C@@H]1[C@@]3(C)CC[C@H](O[C@@H]4O[C@H](CO)[C@@H](O)[C@H](O)[C@H]4O[C@@H]4O[C@H](CO)[C@@H](O)[C@H](O)[C@H]4O)C(C)(C)[C@@H]3CC[C@]12C | inactive | inactive | inactive | inactive | – | > 250 | > 250
CC(C)=CCC[C@](C)(O[C@@H]1O[C@H](CO[C@@H]2OC[C@H](O)[C@H](O)[C@H]2O)[C@@H](O)[C@H](O)[C@H]1O)[C@H]1CC[C@]2(C)[C@@H]1[C@H](O)C[C@@H]1[C@@]3(C)CC[C@H](O)C(C)(C)[C@@H]3[C@@H](O)C[C@]12C [GINSENOSIDE F3] | inactive | inactive | inactive | inactive | – | > 250 | > 250
CC(C)=CCC[C@](C)(O[C@@H]1O[C@H](CO[C@@H]2O[C@H](CO)[C@@H](O)[C@H](O)[C@H]2O)[C@@H](O)[C@H](O)[C@H]1O)[C@H]1CC[C@]2(C)[C@@H]1[C@H](O)C[C@@H]1[C@@]3(C)CC[C@H](O[C@@H]4O[C@H](CO)[C@@H](O)[C@H](O)[C@H]4O)C(C)(C)[C@@H]3CC[C@]12C [GYPENOSIDE XVII] | inactive | inactive | inactive | inactive | – | > 250 | > 250

— ChEMBL document CHEMBL1157938, “Cytotoxicity and inhibition of DNA topoisomerase I of polyhydroxylated triterpenoids and triterpenoid glycosides” (Bioorg Med Chem Lett, 2010)
